Reference: publication PMC7226106, “Population Pharmacokinetics/Pharmacodynamics of Dabrafenib Plus Trametinib in Patients with BRAF-Mutated Metastatic Melanoma” (Cancers, 2020)
Read-outs that look alike come from different tables or passages of the source.

Columns and labels:
[1] = Population pharmacokinetic model of dabrafenib/hydroxy-dabrafenib (NONMEM) from plasma concentrations; assay type: in vivo, human (patients); settings: for Vd/F: both sexes, human, plasma, oral, 150 mg twice daily, read-out: V2/F, apparent central volume of distribution of DAB
Text: Seventy-three outpatients treated with DAB were enrolled from July 2015 to June 2017 in this observational multicentric study including three hospitals of the Assistance Publique—Hôpitaux de Paris (Cochin, Henri Mondor, and Avicenne). To be eligible, patients needed to meet the following criteria: a minimal age of 18 years, metastatic BRAF^V600-mutated solid tumors, treatment with DAB or CombiDT with at least one available DAB concentration measurement.
DAB, dabrafenib-d9 (internal standard, IS), and TRA were purchased from LGC Standards (Molsheim, France). A custom synthesis was developed by Shanghai Medicilon (Shanghai, China) for OHD. The plasma concentrations were assayed using a validated high-performance liquid chromatography-tandem mass spectrometry (HPLC-MS/MS) (ATSQ Quantum Ultra®mass spectrometer, ThermoFisher, Les Ulis, France). Chromatographic separation was performed on Accucore® C18 (2.1 × 50 mm; 2.6 µm) analytical column (ThermoFisher Scientific, Les Ulis, France) associated with a guard column packed with the same bonded phase. Two hundred microliters (µL) aliquot of plasma (calibration standard, internal quality control or patient sample) was mixed with 20 µL of IS solution. Then 600 µL acetonitrile with 1% (v/v) formic acid was added. Samples were mixed and centrifuged, and the supernatant was evaporated and recovered with 200 µL of mobile phase: water/methanol (70:30%, v/v) with formic acid (0.1% v/v). Ten microliters of this mixture were injected into the HPLC-MS/MS system. The calibration standards ranged from 10 to 2000 ng/mL for DAB and OHD and from 5 to 50 ng/mL for TRA.
Blood samples were collected in heparinized tubes during the treatment course, and the exact sample time was recorded. Plasma was separated by centrifugation (3000 rpm, 5 min), and stored at −20 °C until analysis.
The non-linear mixed effects modeling program NONMEM v7.4.1 [34] with the Perl-Speaks NONMEM (PsN) Toolkit v4.8.0 [35] was used to build DAB/OHD and TRA models. Pirana v2.9.2 was used to assist in model development. […] Molar units were used for DAB/OHD analyses. Plasma samples with concentrations below the lower limit of quantification of the assay, non-reliable time information about blood sampling, or without dose information were excluded from the analysis.
A stepwise strategy was used to identify the base models that best fitted DAB/OHD and TRA pharmacokinetic data. Different structural models such as one or two compartments, with linear absorption with or without lag time, were compared. DAB and OHD were modeled simultaneously testing multi-compartment models for both compounds. We hypothesized that DAB was cleared by complete oxidation to OHD, since it is not eliminated as unchanged molecule in urine and accounts for less than 22% in feces. Moreover, the first-order absorption rate constant (ka) of DAB was fixed to 1.8 h^−1 according to a previously published value to allow an adequate estimate of all pharmacokinetic parameters. Since DAB and TRA are administered orally, the pharmacokinetic parameters represent apparent values. Exponential errors following a log-normal distribution were assumed for the description of IIV of all the pharmacokinetic parameters. Inter-occasion variability (IOV) was tested in both DAB/OHD and TRA models to assess differences in individual parameters across study occasions. Additive, proportional, and mixed error models were compared to depict the residual unexplained variability (RUV) for both drugs and metabolite. The correlation between DAB and OHD data was tested using the L2 item in NONMEM. […]

[2] = tested on: BRAF^V600-mutated MM patients; experiment: Safety: adverse events and dose-limiting toxicities (DLT) under CombiDT
Experimental: Patients initiated DAB at the recommended daily dose of 150 mg twice daily. In patients treated with CombiDT, TRA was started at 2 mg once daily. Reduced starting doses were allowed at physician discretion based on comorbidities and patients’ general condition. All AE were graded using the National Cancer Institute Common Toxicity Criteria v4.0. DAB treatment was continued until disease progression, unacceptable toxicity, or unfitness to receive it.

[3] = tested on: BRAF^V600-mutated metastatic melanoma; experiment: Survival (PFS, OS) and Cox exposure-survival analysis under CombiDT; assay type: in vivo, human (patients)
Experimental: (§1) Pharmacokinetic/pharmacodynamic analysis was conducted in BRAF^V600-mutated MM patients concomitantly treated with CombiDT. Regarding safety, the onset of DLT was considered as the clinical endpoint. A DLT was defined as any toxicity leading to dose reduction or temporary or permanent discontinuation of treatment. Regarding survival, the primary end point was progression free survival (PFS), the time from DAB and TRA treatment initiation to documented progression event (either clinical or radiological progression) or death from any cause. The secondary end-point was overall survival (OS), defined as the time from DAB and TRA treatment initiation to death from any cause. Radiographic evidence of progression was defined according to modified Response Evaluation Criteria in Solid Tumor (RECIST) v1.1 [41].
Multivariate Cox models according to a stepwise procedure were tested including all variables which were significant at 5% level in the univariate analyses.

[4] = parameters: method as in PMID 24408395; settings: fixed in base and final model and bootstrap; cited from earlier work
[5] = parameters: method as in earlier work; settings: preclinical data; cited from earlier work
[6] = cited from earlier work
[7] = Model-estimated systemic exposure (AUC) in BRAF^V600-mutated MM patients treated with CombiDT; settings: for AUC: human, plasma, oral
Experimental: as §1
Systemic exposures to DAB, OHD, and TRA (AUCDAB, AUCOHD, and AUCTRA, respectively) were calculated with classic equations, composite DAB and OHD AUC (AUCDAB+OHD) as previously explained and AUCOHD/DAB as the ratio of AUCOHD over AUCDAB. Univariate Fisher and Wilcoxon models were performed to identify which parameters could contribute to the onset of DLT. The following variables were tested: sex, age at treatment initiation, BMI, Eastern Cooperative Oncology Group Performance Status (ECOG PS: grade 0-1 vs ≥2), lactate dehydrogenase (LDH) level (<1.5N vs. ≥1.5N), AUCDAB, AUDOHD, AUCDAB+OHD, and AUCTRA.
Multivariate Cox models according to a stepwise procedure were tested including all variables which were significant at 5% level in the univariate analyses. All the pharmacokinetic/pharmacodynamic analyses were performed using R program v3.6.1 with RStudio v1.1.383 (http://www.r-project.org).

[8] = bootstrap median (n = 500 samples)
[9] = reference models built upon clinical trial data

## CC(C)(C)c1nc(-c2cccc(NS(=O)(=O)c3c(F)cccc3F)c2F)c(-c2ccnc(N)n2)s1 [DAB, Dabrafenib]
[1]; DAB monotherapy vs. combiDT (ΔOFV = −2.9, p > 0.05)
  difference in pharmacokinetics: did not differ
[1]; base DAB/OHD model
  IIV CL/F, interindividual variability (coefficient of variation): 21.9%
  IIV V2/F, interindividual variability (coefficient of variation): 43.0%
  IOV, inter-occasion variability on CL/F (coefficient of variation): 17.2%
  RUV of DAB, residual unexplained variability (proportional): 49.2%
  Tlag, lag time: 0.50 h
  Vd/F: 39.5 L
[1]; base DAB/OHD model, n = 73, steady state
  CL/F, apparent clearance of DAB: 17.7 L/h
[1]; [8]
  CL/F, apparent clearance of DAB: 19.2 L/h
  IIV CL/F, interindividual variability (coefficient of variation): 14.4%
  IIV V2/F, interindividual variability (coefficient of variation): 69.4%
  IOV, inter-occasion variability on CL/F (coefficient of variation): 17.0%
  RUV of DAB, residual unexplained variability (proportional): 48.2%
  Tlag, lag time: 0.499 h
  Vd/F: 38.3 L
[1]; final DAB/OHD model
  Vd/F: 39.1 L
  CL/F, apparent clearance of DAB: 19.3 L/h
  IIV CL/F, interindividual variability (coefficient of variation): 16.0%
  IIV V2/F, interindividual variability (coefficient of variation): 50.8%
  IOV, inter-occasion variability on CL/F (coefficient of variation): 17.4%
  RUV of DAB, residual unexplained variability (proportional): 48.7%
  Tlag, lag time: 0.499 h
[1]; comparing 20-year-old to 90-year-old patients
  reduction of CL/F: 55%
[1]; concomitant proton-pump inhibitor (PPI) intake (ΔOFV = −3.5, p > 0.05)
  difference in pharmacokinetics: did not differ
[1]; in vivo
  base model variance of clearance explained by covariates (sex, age): 47%
[1]; model building
  inter-occasion variability (IOV) on CL/F: 17%
[1]; women vs. men
  reduction of CL/F: 17%
[2]; 52 MM patients
  patients in whom the drug dose was reduced: 15%
  patients in whom the drug was discontinued permanently: 8%
  patients who experienced a drug-related DLT: 23%
[2]; human, in vivo
  median time to onset of drug-related DLT: 110 days
[3]; present cohort
  patients who discontinued DAB treatment because of cerebral progression: 72%
[3]; univariate Cox model, n = 30
  Risk of Death, HR (CI95%) for AUCM3: 1.02 (0.75–1.39)
  Risk of Progression, HR (CI95%) for AUCM3: 1.04 (0.82–1.32)
[4]
  ka, first-order absorption rate constant: 1.8 fixed 1/h
[5]
  passage of the intact blood brain barrier: may cross intact blood brain barrier
[6]
  unchanged molecule in feces: less than 22%
[6]; previously published value, fixed in the model
  first-order absorption rate constant (ka): 1.8 h⁻¹
[6]; [9]
  CL/F: 17.0 L/h
  Q/F: 3.30 L/h
  lag time: 0.482 h
[7]; AUC, median (range), patients with DAB-related DLT (n = 12), last AUC before onset of DLT
  AUC: 9620 ng·h/mL
[7]; AUC, median (range), patients without DAB-related DLT (n = 40), average AUC over treatment course
  AUC: 7480 ng·h/mL
[7]; mean AUCDAB, after DAB dose reduction, n = 8
  AUC: 5040 ng·h/mL
[7]; mean AUCDAB, before DAB dose reduction, n = 8
  AUC: 9010 ng·h/mL
[7]; median AUCM3 (mean AUC during the first three months of treatment), 30 MM patients of the exposure-survival analysis
  AUC: 7720 ng·h/mL
[7]; n = 8
  decrease in mean AUCDAB after DAB dose reduction: 1.8 fold
